Biological target: T1, GABAB receptor (Homo sapiens, UniProt O75899+Q9UBS5)
T1 construct: expressed in transfected cells; host or cells: CHO-K1 (membranes)
Assay: [35S]-GTPγS binding assay with GABA in the presence or absence of PAM
Format: biochemical
Settings: log EC50 for GABA plotted against log concentration of the positive allosteric modulator; read-out: EC50 (potency of the positive allosteric modulator)
Protocol: [^35S]-GTPγS binding assays were performed at 30° C. for 45 min in membrane buffer (100 mM NaCl, 5 mM MgCl2, 1 mM EDTA, 50 mM HEPES, pH 7.4) containing 0.025 μg/μl of membrane protein (prepared from the cell lines described above) with 0.01% bovine serum albumin (fatty acid free), 10 μM GDP, 100 μM DTT and 0.53 nM [^35S]-GTPγS (Amersham-Pharmacia Biotech) in a final volume of 200 μl. Non-specific binding was determined in the presence of 20 μM GTPγS. The reaction was started by the addition of GABA at concentration between 1 mM and 0.1 mM in the presence or absence of the required concentration of PAM. The reaction was terminated by addition of ice-cold wash buffer (50 mM Tris-HCl, 5 mM MgCl2, 50 mM NaCl, pH 7.4) followed by rapid filtration under vacuum through Printed Filtermat A glass fiber filters (Wallac) (0.05% PEI treated) using a Micro 96 Harvester (Skatron Instruments). The filters were dried for 30 min at 50° C., then a paraffin scintillant pad was melted onto the filters and the bound radioactivity was determined using a 1450 Microbeta Trilux (Wallac) scintillation counter.
GABA dose-response curves in the presence and absence of test compounds were constructed using the 4-parameter logistic equation, y=ymax+((ymin−ymax)/1+(x/C)^D) where C=EC50 and D=slope factor.
The potency of PAM in GTPγS assays was determined by plotting the log EC50 for GABA against the log concentration of the positive allosteric modulator in the presence of which the measurement was performed.

T1 sequence (Q9UBS5 15-961 limits assumed): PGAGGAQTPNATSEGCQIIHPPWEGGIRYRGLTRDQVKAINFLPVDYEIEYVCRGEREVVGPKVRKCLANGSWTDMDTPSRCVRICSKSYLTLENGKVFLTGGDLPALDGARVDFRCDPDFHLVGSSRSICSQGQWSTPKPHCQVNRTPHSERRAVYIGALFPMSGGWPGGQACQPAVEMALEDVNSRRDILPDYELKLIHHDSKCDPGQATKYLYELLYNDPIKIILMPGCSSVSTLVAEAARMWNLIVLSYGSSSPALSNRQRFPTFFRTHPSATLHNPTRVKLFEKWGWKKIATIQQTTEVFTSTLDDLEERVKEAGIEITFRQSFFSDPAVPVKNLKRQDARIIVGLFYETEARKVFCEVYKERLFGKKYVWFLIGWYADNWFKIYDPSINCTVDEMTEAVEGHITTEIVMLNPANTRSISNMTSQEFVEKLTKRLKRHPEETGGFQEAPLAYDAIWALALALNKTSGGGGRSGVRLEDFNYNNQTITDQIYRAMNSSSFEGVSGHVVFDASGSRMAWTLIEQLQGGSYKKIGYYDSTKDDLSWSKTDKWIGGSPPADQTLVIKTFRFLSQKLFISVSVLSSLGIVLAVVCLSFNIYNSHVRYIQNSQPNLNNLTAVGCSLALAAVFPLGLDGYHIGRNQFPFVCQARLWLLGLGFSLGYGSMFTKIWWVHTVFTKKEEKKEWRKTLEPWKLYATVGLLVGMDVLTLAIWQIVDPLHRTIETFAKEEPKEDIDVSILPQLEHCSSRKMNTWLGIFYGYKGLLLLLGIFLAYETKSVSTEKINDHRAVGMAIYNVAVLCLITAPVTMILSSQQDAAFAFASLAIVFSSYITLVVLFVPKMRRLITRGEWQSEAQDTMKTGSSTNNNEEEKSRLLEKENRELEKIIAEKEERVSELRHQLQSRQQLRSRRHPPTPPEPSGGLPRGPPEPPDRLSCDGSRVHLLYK
T1 sequence (O75899 42-941): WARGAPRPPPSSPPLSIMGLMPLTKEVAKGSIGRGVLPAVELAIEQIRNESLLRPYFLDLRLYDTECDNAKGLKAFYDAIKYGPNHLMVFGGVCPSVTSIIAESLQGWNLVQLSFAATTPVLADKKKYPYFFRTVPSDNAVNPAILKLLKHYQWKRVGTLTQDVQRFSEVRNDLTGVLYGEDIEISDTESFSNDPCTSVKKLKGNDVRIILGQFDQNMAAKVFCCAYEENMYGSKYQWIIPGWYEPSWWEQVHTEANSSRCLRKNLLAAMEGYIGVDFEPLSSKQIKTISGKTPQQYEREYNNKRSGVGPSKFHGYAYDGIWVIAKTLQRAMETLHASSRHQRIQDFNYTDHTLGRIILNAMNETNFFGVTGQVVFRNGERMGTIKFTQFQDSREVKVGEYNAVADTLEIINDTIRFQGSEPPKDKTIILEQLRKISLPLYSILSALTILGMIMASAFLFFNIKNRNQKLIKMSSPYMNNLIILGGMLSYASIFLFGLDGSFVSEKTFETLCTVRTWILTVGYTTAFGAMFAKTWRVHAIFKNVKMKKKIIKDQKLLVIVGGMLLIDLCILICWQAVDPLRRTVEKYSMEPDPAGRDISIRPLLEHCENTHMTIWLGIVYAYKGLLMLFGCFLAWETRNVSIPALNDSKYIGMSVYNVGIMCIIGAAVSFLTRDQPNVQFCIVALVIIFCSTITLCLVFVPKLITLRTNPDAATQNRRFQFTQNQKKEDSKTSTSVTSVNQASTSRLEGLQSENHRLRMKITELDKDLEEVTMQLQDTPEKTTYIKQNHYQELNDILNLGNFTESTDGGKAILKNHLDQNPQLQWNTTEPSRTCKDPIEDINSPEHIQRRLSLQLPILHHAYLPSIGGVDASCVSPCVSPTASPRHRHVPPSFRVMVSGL

Compound	EC50 [nM]
COCC(C)(C)OC(=O)c1c(NC(=O)C2COc3ccccc3O2)nc(OC)n1-c1ccccc1 (stereo not shown) [2-methoxy-1,1-dimethylethyl 4-[(2,3-dihydro-1,4-benzodioxin-2-ylcarbonyl)amino]-2-methoxy-1-phenyl-1H-imidazole-5-carboxylate]	300
CCCCC(C)(C)OC(=O)c1c(NC(=O)c2ccc(Cl)cc2)nc(SC)n1-c1ccccc1 [1,1-dimethylpentyl 4-[(4-chlorobenzoyl)amino]-2-(methylthio)-1-phenyl-1H-imidazole-5-carboxylate]	300
CCOC(=O)c1c(NC(=O)c2ccc(Cl)c(Cl)c2)nc(SC)n1Cc1ccccc1 [1H-imidazole-5-carboxylic acid, 4-[(3,4-dichlorobenzoyl)amino]-2-(methylthio)-1-(phenylmethyl)-, ethyl ester]	2300
CCOC(=O)c1c(NC(=O)C(CC)c2ccccc2)nc(SC)n1-c1ccccc1 (stereo not shown) [1H-imidazole-5-carboxylic acid, 2-(methylthio)-4-[(1-oxo-2-phenylbutyl)amino]-1-phenyl-, ethyl ester]	600

Reference: patent US7718686B2, “Imidazole variants as modulators of GABA receptor for the treatment of GI disorders” (AstraZeneca AB, priority 2004, dated 2010)
